We go through 13 molecules from ChEMBL document CHEMBL1201862, “PubChem BioAssay data set” (2004).

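Assay format: 96-well plates, 48-hour exposure. GI50 marks 50% less growth.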 Active and inactive are the calls of the source. No stated cut-off is given here; in the data, active = GI50 up to about 1.1 µM and inactive = higher.

Among the test systems are UACC-62; OVCAR-3; HCC 2998; CAKI-1; NCI-H23; MDA-MB-435; UACC-257; HCT-15; DU-145; SF-295; KM12; SNB-75; OVCAR-4; SK-MEL-2; HOP-62; SK-MEL-5; SR.
Common to all, as to test: NCI-60 cell line screen, 48 h

On to `Fc1ccc(C(OCCN2CC3CC2CN3CCCc2ccccc2)c2ccc(F)cc2)cc1` (stereo not drawn), for which the GI50 with UACC-62 is 11.1 µM (inactive); with OVCAR-3, 9.98 µM (inactive); in the test with HCC 2998 it was 2.38 µM (inactive); with CAKI-1, 10.1 µM (inactive); in the test on NCI-H23 it was 11.4 µM (inactive); in the test with MDA-MB-435, 5.3 µM (inactive). For the same molecule, the GI50 in the test with UACC-257 is 3.69 µM (inactive); with HCT-15, 4.63 µM; in the test with DU-145, 10.1 µM (inactive); in the test on SF-295, 6.19 µM (inactive); with KM12, 4.85 µM (inactive); in the test on SNB-75 it was 0.955 µM (active). Also, the GI50 with OVCAR-4 is 8.95 µM (inactive); in the test on SK-MEL-2 it was 9.95 µM (inactive); in the test with HOP-62 it was 11.4 µM (inactive); with SK-MEL-5, 1.84 µM (inactive).

On to `O=c1cc(N2CCCC2)[nH]c(=O)n1-c1ccc(Cl)cc1`, for which the GI50 in the test on UACC-62, in the test on OVCAR-3, in the test with HCC 2998, with CAKI-1, in the test on NCI-H23 and in the test on MDA-MB-435 was > 100 µM (inactive) in each case. The GI50 in the test on UACC-257 is > 100 µM (inactive); in the test on HCT-15, greater than 100 µM; in the test on DU-145 it was > 100 µM (inactive); with SF-295 it was > 100 µM (inactive); in the test on KM12, > 100 µM (inactive); in the test with SNB-75 it was > 100 µM (inactive). The GI50 in the test with OVCAR-4, with SK-MEL-2 and with HOP-62 was > 100 µM (inactive) throughout.

Regarding `CCn1c(CCCc2nc3c(=O)n(C)c(=O)n(C)c3[nH]2)nc2c1c(=O)n(C)c(=O)n2C`, the GI50 in the test with UACC-62, in the test on OVCAR-3, in the test on HCC 2998, in the test with CAKI-1, with NCI-H23 and in the test on MDA-MB-435 was > 100 µM (inactive) each time. In addition, the GI50 in the test on UACC-257 is > 100 µM (inactive); in the test with HCT-15, greater than 100 µM; with DU-145, > 100 µM (inactive); in the test on SF-295, > 100 µM (inactive); with KM12 it was > 100 µM (inactive); with OVCAR-4, > 100 µM (inactive). In addition, the figures for the GI50 in the test on HOP-62 and in the test on SK-MEL-5 were > 100 µM (inactive) and 14 µM (inactive), respectively.

`CCN1CC2=C(N=c3s/c(=C\c4ccc(Cl)cc4)c(=O)n3C2c2ccc(Cl)cc2)/C(=C/c2ccc(Cl)cc2)C1` (stereo not drawn): the GI50 in the test on UACC-62 was 32.2 µM (inactive); with OVCAR-3, > 100 µM (inactive); in the test with HCC 2998, > 100 µM (inactive); with CAKI-1, 16.4 µM (inactive); in the test on NCI-H23, 63.1 µM (inactive); in the test on MDA-MB-435, > 100 µM (inactive). Moreover, the GI50 in the test with UACC-257 is > 100 µM (inactive); in the test on HCT-15 it was greater than 100 µM; in the test on DU-145 it was > 100 µM (inactive); in the test with SF-295 it was 33 µM (inactive); with KM12 it was > 100 µM (inactive); in the test with SNB-75, 2.37 µM (inactive). Besides, the GI50 is > 100 µM (inactive) with OVCAR-4, 26.6 µM (inactive) in the test on SK-MEL-2, 14.7 µM (inactive) in the test with HOP-62 and > 100 µM (inactive) in the test on SK-MEL-5.

Regarding `CC[C@]12C=CCN3CCC4(c5cc(/N=N/c6ccccc6)c(OC)cc5N(C)[C@H]4[C@@](O)(C(=O)OC)[C@@H]1OC(C)=O)[C@@H]32` (stereo partly drawn), the GI50 with UACC-62 was 14.5 µM (inactive); in the test on OVCAR-3, 12.8 µM (inactive); in the test with HCC 2998, 17.9 µM (inactive); with CAKI-1 it was 24.2 µM (inactive); in the test with NCI-H23, 15.3 µM (inactive); in the test with MDA-MB-435, 18.8 µM (inactive). Also, the GI50 with UACC-257 is 16.6 µM (inactive); in the test on HCT-15, 17.3 µM; in the test with SR, 19.4 µM (inactive); with DU-145, 17.6 µM (inactive); with SF-295, 15.6 µM (inactive); with KM12, 18.7 µM (inactive). For the same molecule, the GI50 in the test with OVCAR-4 is 17.1 µM (inactive); with SK-MEL-2, 17.1 µM (inactive); in the test on HOP-62 it was 17.5 µM (inactive); in the test on SK-MEL-5, 19.9 µM (inactive).

`CCCCCCCCCCCCCCCCCCNc1ccn(C2OC(CO)C(OP(=O)(O)OCC(O)COP(=O)(O)OCC3OC(n4cc(F)c(NCCCCCCCCCCCCCCCCCC)nc4=O)CC3O)C2O)c(=O)n1` (stereo not drawn): the GI50 in the test on UACC-62, with OVCAR-3, in the test with HCC 2998, with CAKI-1, with NCI-H23 and with MDA-MB-435 was > 50 µM (inactive) each time. The GI50 in the test on UACC-257 is > 50 µM (inactive); in the test on HCT-15 it was greater than 50 µM; with DU-145, > 50 µM (inactive); in the test on SF-295, > 50 µM (inactive); in the test with KM12, > 50 µM (inactive); in the test on SNB-75 it was > 50 µM (inactive). The GI50 in the test on OVCAR-4, with SK-MEL-2, in the test on HOP-62 and in the test with SK-MEL-5 was > 50 µM (inactive) each time.

With `C/C=C/[C@@]1(OC(=O)c2ccccc2)C[C@@H]2CCCC[C@@H]21`, the GI50 with UACC-62 is 16.7 µM (inactive); in the test on HCC 2998, 21.1 µM (inactive); with CAKI-1, 17.6 µM (inactive); in the test with NCI-H23, 16.5 µM (inactive); with UACC-257, 18.3 µM (inactive); in the test with HCT-15 it was 19.5 µM. Besides, the GI50 is 18.1 µM (inactive) in the test on SR; 17.5 µM (inactive) in the test with DU-145; 18.6 µM (inactive) in the test on SF-295; 17.4 µM (inactive) with KM12; 14.2 µM (inactive) with SNB-75; 17 µM (inactive) in the test with OVCAR-4. Besides, the GI50 with SK-MEL-2 is 13.2 µM (inactive); with HOP-62 it was 15.5 µM (inactive); with SK-MEL-5, 15.9 µM (inactive).

`CC1=NN(c2cccc(Cl)c2)C2(SCC(=O)N2c2nc3ccccc3s2)/C1=C\c1ccc(N(C)C)cc1` (stereo not drawn): the GI50 with OVCAR-3 is 48.5 µM (inactive); in the test with HCC 2998, 88.7 µM (inactive); with CAKI-1 it was 85.9 µM (inactive); in the test on NCI-H23 it was 31.8 µM (inactive); with MDA-MB-435, > 100 µM (inactive); in the test on UACC-257 it was 56.8 µM (inactive). Further, the GI50 is 56.1 µM in the test on HCT-15; 58.5 µM (inactive) with SR; > 100 µM (inactive) in the test with DU-145; 42.2 µM (inactive) in the test with SF-295; > 100 µM (inactive) with KM12; 93.5 µM (inactive) with OVCAR-4. Besides, the GI50 was 23.9 µM (inactive) with SK-MEL-2, 19.4 µM (inactive) in the test with HOP-62 and 39.7 µM (inactive) in the test on SK-MEL-5.

On to `CCOC(=O)C1C(c2ccco2)C2(C#N)C(=N)OC1(C)C2(C#N)C#N` (stereo not drawn), for which the GI50 in the test with UACC-62, in the test with HCC 2998, with CAKI-1, in the test with NCI-H23, in the test on MDA-MB-435 and with UACC-257 was > 100 µM (inactive) each time. For the same molecule, the GI50 in the test with HCT-15 is 33.1 µM; in the test on DU-145, > 100 µM (inactive); in the test on SF-295, > 100 µM (inactive); in the test with KM12 it was > 100 µM (inactive); with SNB-75, 57.7 µM (inactive); in the test on SK-MEL-2, > 100 µM (inactive). For the same molecule, in the test on SK-MEL-5, the GI50 is > 100 µM (inactive).

As for `Cc1ccc2nc(N/N=C/c3sccc3C)cc(C)c2c1`, the GI50 in the test with UACC-62, in the test on OVCAR-3, with HCC 2998, with CAKI-1, in the test with NCI-H23 and in the test on MDA-MB-435 was > 100 µM (inactive) in each case. Besides, the GI50 in the test on UACC-257 was > 100 µM (inactive); in the test on HCT-15, greater than 100 µM; with DU-145, > 100 µM (inactive); in the test with KM12, > 100 µM (inactive); in the test with SNB-75 it was 38.7 µM (inactive); with OVCAR-4, 34.9 µM (inactive). Further, the figures for the GI50 with SK-MEL-2, in the test on HOP-62 and with SK-MEL-5 were > 100 µM (inactive), 29.3 µM (inactive) and 28.8 µM (inactive), respectively.

Consider `NNc1ncnc2cccc(Cl)c12`, for which the GI50 with UACC-62, in the test on OVCAR-3, in the test with HCC 2998, in the test with CAKI-1, with NCI-H23 and in the test on UACC-257 was > 100 µM (inactive) throughout. The GI50 with HCT-15 is greater than 100 µM; in the test with SR, > 100 µM (inactive); with DU-145 it was > 100 µM (inactive); in the test on SF-295, > 100 µM (inactive); in the test on KM12 it was > 100 µM (inactive); in the test with SNB-75, > 100 µM (inactive). The GI50 in the test on OVCAR-4, with HOP-62 and in the test on SK-MEL-5 was > 100 µM (inactive) throughout.

As for `CC(C)=CCc1c2c(c3occ(-c4ccc(O)cc4)c(=O)c3c1O)CC(C(C)(C)O)O2` (stereo not drawn) [SENEGALENSIN], the GI50 in the test on UACC-62 was 16.4 µM (inactive); in the test with OVCAR-3, 14.4 µM (inactive); in the test on HCC 2998, 11.2 µM (inactive); in the test with CAKI-1, 18.8 µM (inactive); in the test with NCI-H23 it was 18.7 µM (inactive); with MDA-MB-435 it was 16.6 µM (inactive). Also, the GI50 was 15.7 µM (inactive) with UACC-257; 13.1 µM in the test with HCT-15; 15.5 µM (inactive) with DU-145; 12.1 µM (inactive) in the test on SF-295; 16.8 µM (inactive) in the test on KM12; 17.8 µM (inactive) in the test with SNB-75. Further, the GI50 in the test on OVCAR-4 is 12.9 µM (inactive); in the test on SK-MEL-2 it was 14.6 µM (inactive); in the test on HOP-62 it was 18.7 µM (inactive); in the test with SK-MEL-5 it was 15.2 µM (inactive).

For `CCCC(=O)OCC(COC(=O)CCC)OC(=O)CCC` [TRIBUTYRIN], the GI50 was 58.3 µM (inactive) in the test with UACC-62; > 100 µM (inactive) in the test with OVCAR-3; > 100 µM (inactive) with HCC 2998; 49.1 µM (inactive) in the test with CAKI-1; > 100 µM (inactive) in the test with NCI-H23; 85.7 µM (inactive) with MDA-MB-435. Also, the GI50 with UACC-257 is 42.2 µM (inactive); with HCT-15, greater than 100 µM; with DU-145, 29.9 µM (inactive); with SF-295, > 100 µM (inactive); with KM12, > 100 µM (inactive); in the test with SNB-75, 36.7 µM (inactive). The GI50 in the test with OVCAR-4 was > 100 µM (inactive); in the test with SK-MEL-2 it was 24.2 µM (inactive); in the test on HOP-62 it was > 100 µM (inactive); in the test with SK-MEL-5, 41.8 µM (inactive).
